Measured values published in patent publication US20240383869A1, “ARYLACETYL INHIBITORS OF TG2 AND USES THEREOF” (UNIVERSITY OF OTTAWA, priority 2021, published 2024).
Like-named read-outs stand apart in the source and are kept apart here.

How the values were obtained:
[1] = molecular target: T1, hTG1 (Homo sapiens, UniProt P22735); test: Colorimetric transamidase activity assay, isozyme selectivity; format: biochemical; settings: normalized [I]/α
T1 sequence (P22735 1-817): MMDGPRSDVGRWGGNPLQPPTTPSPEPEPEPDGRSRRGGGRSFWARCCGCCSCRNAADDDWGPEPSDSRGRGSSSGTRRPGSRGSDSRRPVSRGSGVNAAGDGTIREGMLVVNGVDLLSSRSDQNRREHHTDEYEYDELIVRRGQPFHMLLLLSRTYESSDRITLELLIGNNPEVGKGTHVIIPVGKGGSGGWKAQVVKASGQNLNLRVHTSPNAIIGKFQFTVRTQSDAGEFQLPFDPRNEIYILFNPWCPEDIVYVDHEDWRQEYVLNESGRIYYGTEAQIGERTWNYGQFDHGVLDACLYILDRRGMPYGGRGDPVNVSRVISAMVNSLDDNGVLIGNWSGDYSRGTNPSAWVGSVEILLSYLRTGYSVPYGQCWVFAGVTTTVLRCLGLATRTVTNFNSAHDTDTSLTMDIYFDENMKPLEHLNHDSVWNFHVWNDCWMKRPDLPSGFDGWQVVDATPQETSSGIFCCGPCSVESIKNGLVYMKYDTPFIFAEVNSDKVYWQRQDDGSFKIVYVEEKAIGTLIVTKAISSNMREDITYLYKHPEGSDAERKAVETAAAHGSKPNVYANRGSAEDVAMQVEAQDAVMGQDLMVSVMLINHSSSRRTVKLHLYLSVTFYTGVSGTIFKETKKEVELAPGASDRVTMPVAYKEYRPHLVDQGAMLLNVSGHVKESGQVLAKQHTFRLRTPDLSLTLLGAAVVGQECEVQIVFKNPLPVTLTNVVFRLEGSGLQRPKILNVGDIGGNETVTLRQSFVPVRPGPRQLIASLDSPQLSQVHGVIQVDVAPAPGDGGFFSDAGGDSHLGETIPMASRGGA
Method: Colorimetric transamidase activity assay. The activities of hTG1, hTG2 and hTG6 were measured via a colorimetric assay using the chromogenic substrate Cbz-Glu(γ-p-nitrophenyl ester)Gly (AL5), as described (Leblanc, A. et al., “Kinetic studies of guinea pig liver transglutaminase reveal a general-base-catalyzed deacylation mechanism.” Biochemistry 2001, 40 (28), 8335-8342). Assays were conducted at 25° C. in 50 mM MOPS buffer (pH 6.95) containing 7.5 mM CaCl2. […] Stock solutions of the inhibitors were made in water ranging in concentration from 100-500 μM. The reaction was initiated with the addition of enzyme, 0.10 μM hTG1, 0.25 μM hTG2 (4.6 mU/mL) or 0.32 μM hTG6. Formation of hydrolysis product, p-nitrophenolate (pNP), was monitored at 405 nm in a polystyrene 96-well microplate using a BioTek Synergy 4 plate reader. The observed first-order rate constants of inactivation (kobs) were determined via non-linear regression fit to a mono-exponential model (Eqn 1) of absorbance versus time curves. These rate constants (kobs) were in turn fit to a saturation kinetics model (Eqn 2), by non-linear regression, providing the kinetic parameters kinact and KI, as previously described by Stone and Hofsteenge (Stone, S. R. and Hofsteenge, J., “Specificity of activated human protein C.” Biochem. J. 1985, 230 (2), 497-502). […] Experiments were completed in triplicate at minimum.

[2] = molecular target: T2, hTG2 (Homo sapiens, UniProt P21980); test: biochemical; settings: for inactivation of TG2: isozyme selectivity, normalized [I]/α; for Ki: read-out: KI (converted)
T2 sequence (P21980 1-687): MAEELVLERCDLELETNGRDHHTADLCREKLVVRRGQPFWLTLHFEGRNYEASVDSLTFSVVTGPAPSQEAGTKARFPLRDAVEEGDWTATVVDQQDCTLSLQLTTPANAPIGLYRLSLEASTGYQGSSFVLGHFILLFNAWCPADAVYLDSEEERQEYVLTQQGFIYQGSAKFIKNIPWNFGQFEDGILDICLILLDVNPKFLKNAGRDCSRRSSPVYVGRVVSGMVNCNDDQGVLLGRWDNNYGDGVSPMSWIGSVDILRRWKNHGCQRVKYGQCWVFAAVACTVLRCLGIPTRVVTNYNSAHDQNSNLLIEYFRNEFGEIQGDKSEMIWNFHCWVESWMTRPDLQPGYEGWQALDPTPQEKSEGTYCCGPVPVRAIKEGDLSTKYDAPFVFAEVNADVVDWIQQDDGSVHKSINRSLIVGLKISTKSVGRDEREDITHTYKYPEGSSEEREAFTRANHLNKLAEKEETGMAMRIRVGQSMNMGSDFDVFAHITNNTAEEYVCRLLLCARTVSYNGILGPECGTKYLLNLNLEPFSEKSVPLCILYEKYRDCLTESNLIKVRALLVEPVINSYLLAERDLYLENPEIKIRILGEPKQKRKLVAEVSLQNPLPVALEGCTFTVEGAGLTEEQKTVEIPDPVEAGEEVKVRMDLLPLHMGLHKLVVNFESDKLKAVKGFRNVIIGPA
Method: The ability of the compounds to inhibit TG2 transamidase activity and the kinetics of TG2 inhibition were investigated using a colorimetric activity assay, as follows:
Colorimetric transamidase activity assay. The activities of hTG1, hTG2 and hTG6 were measured via a colorimetric assay using the chromogenic substrate Cbz-Glu(γ-p-nitrophenyl ester)Gly (AL5), as described (Leblanc, A. et al., “Kinetic studies of guinea pig liver transglutaminase reveal a general-base-catalyzed deacylation mechanism.” Biochemistry 2001, 40 (28), 8335-8342). Assays were conducted at 25° C. in 50 mM MOPS buffer (pH 6.95) containing 7.5 mM CaCl2. […] The substrate AL5 was prepared in as a stock solution in DMSO such that the final concentration of this co-solvent was constant at 2.5% v/v. Stock solutions of the inhibitors were made in water ranging in concentration from 100-500 μM. The reaction was initiated with the addition of enzyme, 0.10 μM hTG1, 0.25 μM hTG2 (4.6 mU/mL) or 0.32 μM hTG6. Formation of hydrolysis product, p-nitrophenolate (pNP), was monitored at 405 nm in a polystyrene 96-well microplate using a BioTek Synergy 4 plate reader. The observed first-order rate constants of inactivation (kobs) were determined via non-linear regression fit to a mono-exponential model (Eqn 1) of absorbance versus time curves. These rate constants (kobs) were in turn fit to a saturation kinetics model (Eqn 2), by non-linear regression, providing the kinetic parameters kinact and KI, as previously described by Stone and Hofsteenge (Stone, S. R. and Hofsteenge, J., “Specificity of activated human protein C.” Biochem. J. 1985, 230 (2), 497-502). […] Experiments were completed in triplicate at minimum.
Fitting of this time-dependent inactivation to a monoexponential equation gave first-order rate constants, kobs. […] In some cases, the kinetic data were fitted to a linear double reciprocal equation.

[3] = fit to saturation kinetics model, 25° C., pH 6.95, 100 μM AL5

| SMILES | inhibition of TG1 [1] | inactivation of TG2 [2] | kinact/KI ([2]; pH 6.95) [M⁻¹ s⁻¹] | Ki [2, 3] [µM] | kinact ([2]; fit to saturation kinetics model, 25° C., pH 6.95, 100 μM AL5, read-out: kinact (converted)) [s⁻¹] | kinact/KI ([2]; fit to saturation kinetics model, 25° C., pH 6.95, 100 μM AL5, read-out: kinact/KI (converted)) [M⁻¹ s⁻¹] |
| --- | --- | --- | --- | --- | --- | --- |
| C=CC(=O)NCCCC[C@H](NC(=O)OCc1ccccc1)C(=O)N1CCN(C(=O)c2cccc3ccccc23)CC1 [AA9, reference compound] | none of these inhibitors showed any detectable inhibition | inactivated TG2 almost completely, in less than five minutes | 4070 | – | – | – |
| C=CC(=O)NCCCC[C@H](NC(=O)Cc1ccccc1F)C(=O)N1CCN(C(=O)c2cccc3ccccc23)CC1 [Inhibitor 72, (S)-N-(6-(4-(1-naphthoyl)piperazin-1-yl)-5-(2-(2-fluorophenyl)acetamido)-6-oxohexyl)acrylamide] | none of these inhibitors showed any detectable inhibition | inactivated TG2 almost completely, in less than five minutes | – | 1 ± 0.2 | – | – |
| C=CC(=O)NCCCC[C@H](NC(=O)Cc1ccccc1C)C(=O)N1CCN(C(=O)c2cccc3ccccc23)CC1 [Inhibitor 74, (S)-N-(6-(4-(1-naphthoyl)piperazin-1-yl)-5-(2-(2-methylphenyl)acetamido)-6-oxohexyl)acrylamide] | none of these inhibitors showed any detectable inhibition | inactivated TG2 almost completely, in less than five minutes | – | 6.1 ± 1.8 | 0.035 | 5870 |
